# Measurements taken from ChEMBL document CHEMBL5653604, “ZSTK474, a novel phosphatidylinositol 3-kinase inhibitor identified using the JFCR39 drug discovery system” (Acta Pharmacol Sin, 2010).
# Experiments:
# [1] = molecular target: Phosphatidylinositol 4,5-bisphosphate 3-kinase catalytic subunit beta isoform (Homo sapiens, UniProt P42338); test: Inhibition of p110 beta (unknown origin)
# [2] = molecular target: Phosphatidylinositol 4,5-bisphosphate 3-kinase catalytic subunit gamma isoform (Homo sapiens, UniProt P48736); test: Inhibition of p110 gamma (unknown origin)
# [3] = molecular target: T1, Phosphatidylinositol 4,5-bisphosphate 3-kinase catalytic subunit delta isoform (Homo sapiens, UniProt O00329); test: Inhibition of p110 delta (unknown origin)
# T1 sequence (O00329 whole entry): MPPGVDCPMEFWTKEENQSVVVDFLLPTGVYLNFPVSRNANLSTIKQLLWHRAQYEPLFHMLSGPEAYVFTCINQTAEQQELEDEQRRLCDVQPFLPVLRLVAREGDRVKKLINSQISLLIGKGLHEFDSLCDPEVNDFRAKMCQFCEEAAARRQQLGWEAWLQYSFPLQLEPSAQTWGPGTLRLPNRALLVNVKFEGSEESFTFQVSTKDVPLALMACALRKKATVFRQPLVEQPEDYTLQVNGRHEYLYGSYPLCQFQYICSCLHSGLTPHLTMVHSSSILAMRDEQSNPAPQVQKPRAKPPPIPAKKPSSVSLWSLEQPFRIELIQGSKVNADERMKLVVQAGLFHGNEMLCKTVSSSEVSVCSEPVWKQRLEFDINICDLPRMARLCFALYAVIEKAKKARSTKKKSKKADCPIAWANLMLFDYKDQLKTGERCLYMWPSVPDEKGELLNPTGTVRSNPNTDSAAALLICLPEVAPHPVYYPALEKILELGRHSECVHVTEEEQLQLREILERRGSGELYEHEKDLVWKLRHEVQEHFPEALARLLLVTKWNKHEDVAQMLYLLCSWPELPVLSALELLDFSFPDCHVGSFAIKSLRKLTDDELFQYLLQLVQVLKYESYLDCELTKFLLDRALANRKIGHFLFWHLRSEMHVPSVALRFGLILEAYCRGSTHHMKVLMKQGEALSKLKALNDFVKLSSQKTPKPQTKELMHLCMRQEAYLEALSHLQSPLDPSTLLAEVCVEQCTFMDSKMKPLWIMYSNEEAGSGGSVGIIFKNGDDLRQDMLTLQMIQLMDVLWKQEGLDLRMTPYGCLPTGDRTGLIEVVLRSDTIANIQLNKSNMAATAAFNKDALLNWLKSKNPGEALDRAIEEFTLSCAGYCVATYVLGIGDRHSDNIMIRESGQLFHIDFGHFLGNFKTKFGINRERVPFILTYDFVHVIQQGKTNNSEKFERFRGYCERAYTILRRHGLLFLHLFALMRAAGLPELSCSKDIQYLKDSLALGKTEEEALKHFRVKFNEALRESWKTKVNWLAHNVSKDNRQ
# [4] = molecular target: Phosphatidylinositol 4,5-bisphosphate 3-kinase catalytic subunit alpha isoform (Homo sapiens, UniProt P42336); test: Inhibition of p110 alpha (unknown origin)
# [5] = tested on: NCI-H460; test: Growth inhibition of human NCI-H460 cells assessed as reduction in cell viability incubated for 48 hrs by SRB assay; type: functional
# [6] = tested on: RXF 631; test: Growth inhibition of human RXF 631 cells assessed as reduction in cell viability incubated for 48 hrs by SRB assay; type: functional
# [7] = tested on: OVCAR-8; test: Growth inhibition of human OVCAR-8 cells assessed as reduction in cell viability incubated for 48 hrs by SRB assay; type: functional
# [8] = tested on: SK-OV-3; test: Growth inhibition of human SK-OV-3 cells assessed as reduction in cell viability incubated for 48 hrs by SRB assay; type: functional
# Sequence of Phosphatidylinositol 4,5-bisphosphate 3-kinase catalytic subunit beta isoform (P42338 whole entry, canonical isoform): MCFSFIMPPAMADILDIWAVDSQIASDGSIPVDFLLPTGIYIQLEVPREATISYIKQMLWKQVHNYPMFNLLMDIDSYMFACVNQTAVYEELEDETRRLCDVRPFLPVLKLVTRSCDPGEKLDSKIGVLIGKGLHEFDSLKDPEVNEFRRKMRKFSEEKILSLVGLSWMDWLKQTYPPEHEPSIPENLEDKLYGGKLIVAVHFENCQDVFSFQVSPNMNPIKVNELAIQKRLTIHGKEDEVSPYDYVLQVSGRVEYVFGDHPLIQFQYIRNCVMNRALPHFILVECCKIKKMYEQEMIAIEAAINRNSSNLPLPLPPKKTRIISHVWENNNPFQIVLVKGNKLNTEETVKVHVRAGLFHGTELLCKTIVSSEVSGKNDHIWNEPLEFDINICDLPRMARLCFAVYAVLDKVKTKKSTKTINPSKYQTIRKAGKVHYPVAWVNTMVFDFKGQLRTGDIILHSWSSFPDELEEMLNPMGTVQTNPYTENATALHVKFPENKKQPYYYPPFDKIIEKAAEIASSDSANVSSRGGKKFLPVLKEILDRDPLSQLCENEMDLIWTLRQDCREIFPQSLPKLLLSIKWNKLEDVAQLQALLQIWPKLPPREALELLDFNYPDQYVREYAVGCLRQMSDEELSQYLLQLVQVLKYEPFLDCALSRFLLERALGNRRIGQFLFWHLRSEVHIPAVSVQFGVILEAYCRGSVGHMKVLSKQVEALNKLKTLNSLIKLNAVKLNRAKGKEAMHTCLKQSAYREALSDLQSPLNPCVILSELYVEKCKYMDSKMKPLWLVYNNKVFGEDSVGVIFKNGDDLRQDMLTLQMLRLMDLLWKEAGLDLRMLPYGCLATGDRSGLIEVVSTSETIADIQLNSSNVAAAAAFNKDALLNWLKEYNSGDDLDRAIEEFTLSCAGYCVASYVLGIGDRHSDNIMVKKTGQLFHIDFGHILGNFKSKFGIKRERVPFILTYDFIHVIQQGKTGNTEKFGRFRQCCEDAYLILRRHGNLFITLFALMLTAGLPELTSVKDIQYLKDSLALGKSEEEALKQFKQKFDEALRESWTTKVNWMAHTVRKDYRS
# Sequence of Phosphatidylinositol 4,5-bisphosphate 3-kinase catalytic subunit gamma isoform (P48736 whole entry, canonical isoform): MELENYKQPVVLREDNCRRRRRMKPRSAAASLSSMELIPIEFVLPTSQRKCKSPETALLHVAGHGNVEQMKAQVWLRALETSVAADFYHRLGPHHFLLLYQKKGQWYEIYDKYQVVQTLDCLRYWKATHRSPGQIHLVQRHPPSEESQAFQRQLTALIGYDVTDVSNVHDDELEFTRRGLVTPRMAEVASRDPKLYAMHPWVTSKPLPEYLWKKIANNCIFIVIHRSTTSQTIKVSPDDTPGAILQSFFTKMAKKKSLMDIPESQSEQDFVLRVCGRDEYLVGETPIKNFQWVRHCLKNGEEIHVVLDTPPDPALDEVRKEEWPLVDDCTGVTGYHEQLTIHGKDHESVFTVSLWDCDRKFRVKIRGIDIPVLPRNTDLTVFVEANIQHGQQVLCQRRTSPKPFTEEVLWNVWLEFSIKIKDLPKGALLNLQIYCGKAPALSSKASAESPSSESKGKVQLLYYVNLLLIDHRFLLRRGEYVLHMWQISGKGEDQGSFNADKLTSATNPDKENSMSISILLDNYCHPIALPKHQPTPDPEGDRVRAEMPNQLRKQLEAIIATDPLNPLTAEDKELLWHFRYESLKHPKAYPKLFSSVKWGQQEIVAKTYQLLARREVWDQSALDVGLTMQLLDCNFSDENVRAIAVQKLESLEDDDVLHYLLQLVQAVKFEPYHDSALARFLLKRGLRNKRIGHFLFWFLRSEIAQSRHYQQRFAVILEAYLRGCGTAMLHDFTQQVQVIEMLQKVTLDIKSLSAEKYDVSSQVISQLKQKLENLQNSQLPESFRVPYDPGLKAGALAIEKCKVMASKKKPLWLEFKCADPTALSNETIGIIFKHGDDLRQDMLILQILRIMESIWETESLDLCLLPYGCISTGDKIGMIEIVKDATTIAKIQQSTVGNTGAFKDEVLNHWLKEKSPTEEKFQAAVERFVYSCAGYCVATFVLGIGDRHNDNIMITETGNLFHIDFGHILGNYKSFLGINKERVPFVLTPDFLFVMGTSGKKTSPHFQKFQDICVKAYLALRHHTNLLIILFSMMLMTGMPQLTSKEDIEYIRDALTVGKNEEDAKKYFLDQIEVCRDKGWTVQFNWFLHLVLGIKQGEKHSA
# Sequence of Phosphatidylinositol 4,5-bisphosphate 3-kinase catalytic subunit alpha isoform (P42336 whole entry, canonical isoform): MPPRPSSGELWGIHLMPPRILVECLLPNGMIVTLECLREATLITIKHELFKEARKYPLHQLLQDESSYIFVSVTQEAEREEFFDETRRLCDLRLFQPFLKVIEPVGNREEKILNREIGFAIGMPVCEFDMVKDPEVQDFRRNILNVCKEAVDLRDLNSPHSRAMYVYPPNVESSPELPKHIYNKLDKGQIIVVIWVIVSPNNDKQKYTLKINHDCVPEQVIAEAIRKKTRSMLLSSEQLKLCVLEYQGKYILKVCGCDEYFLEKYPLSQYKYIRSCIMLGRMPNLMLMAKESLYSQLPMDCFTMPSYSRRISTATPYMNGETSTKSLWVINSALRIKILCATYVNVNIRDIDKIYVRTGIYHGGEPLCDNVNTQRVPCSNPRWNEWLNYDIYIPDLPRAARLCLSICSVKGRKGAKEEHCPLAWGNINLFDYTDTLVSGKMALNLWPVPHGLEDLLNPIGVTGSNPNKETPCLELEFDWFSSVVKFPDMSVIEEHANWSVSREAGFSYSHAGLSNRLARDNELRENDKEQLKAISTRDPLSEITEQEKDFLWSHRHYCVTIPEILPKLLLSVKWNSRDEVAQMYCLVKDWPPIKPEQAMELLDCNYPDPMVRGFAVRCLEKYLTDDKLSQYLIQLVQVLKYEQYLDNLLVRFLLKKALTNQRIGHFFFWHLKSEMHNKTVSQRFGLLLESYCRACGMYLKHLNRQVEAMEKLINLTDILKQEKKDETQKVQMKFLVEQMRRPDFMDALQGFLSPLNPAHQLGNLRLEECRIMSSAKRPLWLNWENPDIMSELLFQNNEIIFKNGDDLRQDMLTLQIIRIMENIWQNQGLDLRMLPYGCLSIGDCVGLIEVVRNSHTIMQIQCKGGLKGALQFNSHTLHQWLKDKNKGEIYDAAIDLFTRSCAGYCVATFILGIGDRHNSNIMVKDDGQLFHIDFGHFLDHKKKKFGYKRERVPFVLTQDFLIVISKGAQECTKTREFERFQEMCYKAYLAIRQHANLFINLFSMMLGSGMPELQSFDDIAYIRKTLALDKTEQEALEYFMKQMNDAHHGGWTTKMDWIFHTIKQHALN
IC50 [1],Structure (SMILES),IC50 [2],IC50 [3],other results
113 nM,COc1cc(Nc2nc3ccccc3nc2NS(=O)(=O)c2ccc(NC(=O)c3ccc(C)c(OC)c3)cc2)cc(OC)c1,–,–,–
–,COc1ncc(-c2ccc3nccc(-c4ccnnc4)c3c2)cc1NS(=O)(=O)c1ccc(F)cc1F [OMIPALISIB],1 nM,–,–
–,COc1ccc(Cl)c(Nc2nc3ccccc3nc2NS(=O)(=O)c2cccc(NC(=O)C(C)(C)N)c2)c1 [PILARALISIB],23 nM,36 nM,–
> 300 nM,C=CCN(/C=C1/C(=O)O[C@H](COC)[C@@]2(C)C1=C(O)C(=O)C1=C2[C@H](OC(C)=O)C[C@]2(C)C(=O)CC[C@@H]12)CC=C [SONOLISIB],–,3 nM,IC50 [4]: 6 nM
–,FC(F)c1nc2ccccc2n1-c1nc(N2CCOCC2)nc(N2CCOCC2)n1 [ZSTK-474],–,–,GI50 [5]: 372 nM; GI50 [6]: 316 nM; GI50 [7]: 1260 nM; GI50 [8]: 398 nM
